Test results published in the supplement of paper PMC10307832.

Assays:
Test in all cases: relative viability (nuclei count vs DMSO), 5 days (fraction); higher = more cells survive
CAP-232 = compound: C[C@H]([C@@H](C(=O)N)NC(=O)[C@@H]1CSSC[C@@H](C(=O)N[C@H](C(=O)N[C@@H](C(=O)N[C@H](C(=O)N1)CCCCN)CC2=CNC3=CC=CC=C32)CC4=CC=C(C=C4)O)NC(=O)[C@@H](CC5=CC=CC=C5)N)O [CAP-232]
Outline: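 Cells of lung cancer lines were placed in 1536-well plates and kept overnight at 37 °C. Pinning then delivered five library-drug doses (not always all listed), spaced by √10, onto plates anchored with vehicle, and the cells were left 5 days without changing medium. One step fixed, permeabilised and stained them with Hoechst, and MetaXpress counted nuclei in 4× images. Viability, as a median over plates, is treated-well nuclei divided by vehicle-well nuclei, with acceptance only at control CV below 25% and at least one doubling.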

CAP-232 + Navitoclax = compound: C[C@H]([C@@H](C(=O)N)NC(=O)[C@@H]1CSSC[C@@H](C(=O)N[C@H](C(=O)N[C@@H](C(=O)N[C@H](C(=O)N1)CCCCN)CC2=CNC3=CC=CC=C32)CC4=CC=C(C=C4)O)NC(=O)[C@@H](CC5=CC=CC=C5)N)O [CAP-232] + CC1(C)CCC(c2ccc(Cl)cc2)=C(CN2CCN(c3ccc(C(=O)NS(=O)(=O)c4ccc(N[C@H](CCN5CCOCC5)CSc5ccccc5)c(S(=O)(=O)C(F)(F)F)c4)cc3)CC2)C1 [Navitoclax] (partner 0.5 µM)
Outline: (§1)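 A single step with final 0.05% Triton X-100, 1% formaldehyde and 1 ug/ml Hoechst fixed the cells and stained nuclei 5 days after treatment. Lung cancer cell lines in 1536-well plates had been treated by pin tool the day after seeding with one drug alone or a fixed anchor-drug dose plus five library-drug doses (not always all listed) in √10 steps, and nuclei were counted on 4× images. Relative viability is the ratio of nuclei in treated wells to nuclei in vehicle wells, taken as the median of duplicate plates.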

CAP-232 + OSI-027 = compound: C[C@H]([C@@H](C(=O)N)NC(=O)[C@@H]1CSSC[C@@H](C(=O)N[C@H](C(=O)N[C@@H](C(=O)N[C@H](C(=O)N1)CCCCN)CC2=CNC3=CC=CC=C32)CC4=CC=C(C=C4)O)NC(=O)[C@@H](CC5=CC=CC=C5)N)O [CAP-232] + COc1cccc2cc(-c3nc([C@H]4CC[C@H](C(=O)O)CC4)n4ncnc(N)c34)[nH]c12 [OSI-027] (partner 0.5 µM)
Outline: as §1

CAP-232 + Pictilisib = compound: C[C@H]([C@@H](C(=O)N)NC(=O)[C@@H]1CSSC[C@@H](C(=O)N[C@H](C(=O)N[C@@H](C(=O)N[C@H](C(=O)N1)CCCCN)CC2=CNC3=CC=CC=C32)CC4=CC=C(C=C4)O)NC(=O)[C@@H](CC5=CC=CC=C5)N)O [CAP-232] + CS(=O)(=O)N1CCN(Cc2cc3nc(-c4cccc5[nH]ncc45)nc(N4CCOCC4)c3s2)CC1 [Pictilisib] (partner 1 µM)
Outline: as §1

CAP-232 + Decitabine = compound: C[C@H]([C@@H](C(=O)N)NC(=O)[C@@H]1CSSC[C@@H](C(=O)N[C@H](C(=O)N[C@@H](C(=O)N[C@H](C(=O)N1)CCCCN)CC2=CNC3=CC=CC=C32)CC4=CC=C(C=C4)O)NC(=O)[C@@H](CC5=CC=CC=C5)N)O [CAP-232] + Nc1ncn([C@H]2C[C@H](O)[C@@H](CO)O2)c(=O)n1 [Decitabine] (partner 2 µM)
Outline: as §1

201T was tested, and the relative viability (CAP-232; 0.4 µM) was 1.07, the relative viability (CAP-232; 1.265 µM) was 0.952 and the relative viability (CAP-232; 4 µM) was 0.996. The relative viability (CAP-232; 12.65 µM) was 1.02, the relative viability (CAP-232 + Navitoclax; first compound 0.4 µM) was 1.23 and the relative viability (CAP-232 + Navitoclax; first compound 1.265 µM) was 1.19. It also gave a relative viability (CAP-232 + Navitoclax; first compound 4 µM) of 1.12, a relative viability (CAP-232 + Navitoclax; first compound 12.65 µM) of 1.22 and a relative viability (CAP-232 + OSI-027; first compound 0.4 µM) of 0.749. The relative viability (CAP-232 + OSI-027; first compound 1.265 µM) was 0.669, the relative viability (CAP-232 + OSI-027; first compound 4 µM) was 0.722 and the relative viability (CAP-232 + OSI-027; first compound 12.65 µM) was 0.549. For the same cell line, the relative viability (CAP-232 + Pictilisib; first compound 0.4 µM) was 0.765, the relative viability (CAP-232 + Pictilisib; first compound 1.265 µM) was 0.657 and the relative viability (CAP-232 + Pictilisib; first compound 4 µM) was 0.678. The relative viability (CAP-232 + Pictilisib; first compound 12.65 µM) was 0.713, the relative viability (CAP-232 + Decitabine; first compound 0.4 µM) was 0.842 and the relative viability (CAP-232 + Decitabine; first compound 1.265 µM) was 0.844. The relative viability (CAP-232 + Decitabine; first compound 4 µM) was 0.817 and the relative viability (CAP-232 + Decitabine; first compound 12.65 µM) was 0.849.

Cell Line A549 has a relative viability (CAP-232; 0.4 µM) of 0.999, a relative viability (CAP-232; 1.265 µM) of 0.895 and a relative viability (CAP-232; 4 µM) of 1.14. The relative viability (CAP-232; 12.65 µM) was 0.597, the relative viability (CAP-232 + Navitoclax; first compound 0.4 µM) was 1.33 and the relative viability (CAP-232 + Navitoclax; first compound 1.265 µM) was 1.19. It also gave a relative viability (CAP-232 + Navitoclax; first compound 4 µM) of 1.25, a relative viability (CAP-232 + Navitoclax; first compound 12.65 µM) of 0.482 and a relative viability (CAP-232 + Pictilisib; first compound 0.4 µM) of 0.591. For the same cell line, the relative viability (CAP-232 + Pictilisib; first compound 1.265 µM) was 0.472, the relative viability (CAP-232 + Pictilisib; first compound 4 µM) was 0.563 and the relative viability (CAP-232 + Pictilisib; first compound 12.65 µM) was 0.203. For the same cell line, the relative viability (CAP-232 + Decitabine; first compound 0.4 µM) was 0.267, the relative viability (CAP-232 + Decitabine; first compound 1.265 µM) was 0.212 and the relative viability (CAP-232 + Decitabine; first compound 4 µM) was 0.33. For the same cell line, the relative viability (CAP-232 + Decitabine; first compound 12.65 µM) was 0.239.

In the case of A-427, the relative viability (CAP-232; 0.4 µM) is reported as 1.01, the relative viability (CAP-232; 1.265 µM) is reported as 0.953 and the relative viability (CAP-232; 4 µM) is reported as 0.931. The relative viability (CAP-232; 12.65 µM) was 0.86, the relative viability (CAP-232 + Navitoclax; first compound 0.4 µM) was 0.926 and the relative viability (CAP-232 + Navitoclax; first compound 1.265 µM) was 0.996. The relative viability (CAP-232 + Navitoclax; first compound 4 µM) was 0.941, the relative viability (CAP-232 + Navitoclax; first compound 12.65 µM) was 0.965 and the relative viability (CAP-232 + OSI-027; first compound 0.4 µM) was 0.306. For the same cell line, the relative viability (CAP-232 + OSI-027; first compound 1.265 µM) was 0.458, the relative viability (CAP-232 + OSI-027; first compound 4 µM) was 0.494 and the relative viability (CAP-232 + OSI-027; first compound 12.65 µM) was 0.612. For the same cell line, the relative viability (CAP-232 + Pictilisib; first compound 0.4 µM) was 0.508, the relative viability (CAP-232 + Pictilisib; first compound 1.265 µM) was 0.654 and the relative viability (CAP-232 + Pictilisib; first compound 4 µM) was 0.842. It also gave a relative viability (CAP-232 + Pictilisib; first compound 12.65 µM) of 0.853, a relative viability (CAP-232 + Decitabine; first compound 0.4 µM) of 0.578 and a relative viability (CAP-232 + Decitabine; first compound 1.265 µM) of 0.556. For the same cell line, the relative viability (CAP-232 + Decitabine; first compound 4 µM) was 0.599 and the relative viability (CAP-232 + Decitabine; first compound 12.65 µM) was 0.56.

ABC-1 gave a relative viability (CAP-232; 0.4 µM) of 0.968, a relative viability (CAP-232; 1.265 µM) of 0.789 and a relative viability (CAP-232; 4 µM) of 0.957. For the same cell line, the relative viability (CAP-232; 12.65 µM) was 0.603, the relative viability (CAP-232 + OSI-027; first compound 0.4 µM) was 0.455 and the relative viability (CAP-232 + OSI-027; first compound 1.265 µM) was 0.421. The relative viability (CAP-232 + OSI-027; first compound 4 µM) was 0.481, the relative viability (CAP-232 + OSI-027; first compound 12.65 µM) was 0.271 and the relative viability (CAP-232 + Pictilisib; first compound 0.4 µM) was 0.616. The relative viability (CAP-232 + Pictilisib; first compound 1.265 µM) was 0.878, the relative viability (CAP-232 + Pictilisib; first compound 4 µM) was 0.745 and the relative viability (CAP-232 + Pictilisib; first compound 12.65 µM) was 0.411. It also gave a relative viability (CAP-232 + Decitabine; first compound 0.4 µM) of 1.05, a relative viability (CAP-232 + Decitabine; first compound 4 µM) of 0.984 and a relative viability (CAP-232 + Decitabine; first compound 12.65 µM) of 0.887.

In the case of BEN, the relative viability (CAP-232; 0.4 µM) is reported as 1.03, the relative viability (CAP-232; 1.265 µM) is reported as 1.05 and the relative viability (CAP-232; 4 µM) is reported as 0.989. For the same cell line, the relative viability (CAP-232; 12.65 µM) was 0.922, the relative viability (CAP-232 + Navitoclax; first compound 0.4 µM) was 0.0584 and the relative viability (CAP-232 + Navitoclax; first compound 1.265 µM) was 0.0704. It also gave a relative viability (CAP-232 + Navitoclax; first compound 4 µM) of 0.0685, a relative viability (CAP-232 + Navitoclax; first compound 12.65 µM) of 0.0473 and a relative viability (CAP-232 + OSI-027; first compound 0.4 µM) of 0.27. The relative viability (CAP-232 + OSI-027; first compound 1.265 µM) was 0.33, the relative viability (CAP-232 + OSI-027; first compound 4 µM) was 0.287 and the relative viability (CAP-232 + OSI-027; first compound 12.65 µM) was 0.241. It also gave a relative viability (CAP-232 + Pictilisib; first compound 0.4 µM) of 0.569, a relative viability (CAP-232 + Pictilisib; first compound 1.265 µM) of 0.55 and a relative viability (CAP-232 + Pictilisib; first compound 4 µM) of 0.601. The relative viability (CAP-232 + Pictilisib; first compound 12.65 µM) was 0.498, the relative viability (CAP-232 + Decitabine; first compound 0.4 µM) was 0.792 and the relative viability (CAP-232 + Decitabine; first compound 1.265 µM) was 0.686. It also gave a relative viability (CAP-232 + Decitabine; first compound 4 µM) of 0.742 and a relative viability (CAP-232 + Decitabine; first compound 12.65 µM) of 0.795.

For CAL-12T, the relative viability (CAP-232; 0.4 µM) was 0.917, the relative viability (CAP-232; 1.265 µM) was 0.992 and the relative viability (CAP-232; 4 µM) was 0.995. For the same cell line, the relative viability (CAP-232; 12.65 µM) was 0.97, the relative viability (CAP-232 + Navitoclax; first compound 0.4 µM) was 1.05 and the relative viability (CAP-232 + Navitoclax; first compound 1.265 µM) was 1.21. It also gave a relative viability (CAP-232 + Navitoclax; first compound 4 µM) of 1.3, a relative viability (CAP-232 + Navitoclax; first compound 12.65 µM) of 0.94 and a relative viability (CAP-232 + OSI-027; first compound 0.4 µM) of 0.611. The relative viability (CAP-232 + OSI-027; first compound 1.265 µM) was 0.556, the relative viability (CAP-232 + OSI-027; first compound 4 µM) was 0.585 and the relative viability (CAP-232 + OSI-027; first compound 12.65 µM) was 0.298. For the same cell line, the relative viability (CAP-232 + Pictilisib; first compound 0.4 µM) was 0.383, the relative viability (CAP-232 + Pictilisib; first compound 1.265 µM) was 0.381 and the relative viability (CAP-232 + Pictilisib; first compound 4 µM) was 0.435. The relative viability (CAP-232 + Pictilisib; first compound 12.65 µM) was 0.322.

In the case of COR-L23, the relative viability (CAP-232; 0.4 µM) is reported as 1.15, the relative viability (CAP-232; 1.265 µM) is reported as 1.05 and the relative viability (CAP-232; 4 µM) is reported as 1.09. The relative viability (CAP-232; 12.65 µM) was 0.745, the relative viability (CAP-232 + Navitoclax; first compound 0.4 µM) was 1.02 and the relative viability (CAP-232 + Navitoclax; first compound 1.265 µM) was 1.1. The relative viability (CAP-232 + Navitoclax; first compound 4 µM) was 0.977, the relative viability (CAP-232 + Navitoclax; first compound 12.65 µM) was 0.572 and the relative viability (CAP-232 + OSI-027; first compound 0.4 µM) was 1.15. It also gave a relative viability (CAP-232 + OSI-027; first compound 1.265 µM) of 0.759, a relative viability (CAP-232 + OSI-027; first compound 4 µM) of 0.85 and a relative viability (CAP-232 + OSI-027; first compound 12.65 µM) of 0.495. The relative viability (CAP-232 + Pictilisib; first compound 0.4 µM) was 0.653, the relative viability (CAP-232 + Pictilisib; first compound 1.265 µM) was 0.734 and the relative viability (CAP-232 + Pictilisib; first compound 4 µM) was 0.784. It also gave a relative viability (CAP-232 + Pictilisib; first compound 12.65 µM) of 0.579, a relative viability (CAP-232 + Decitabine; first compound 0.4 µM) of 0.451 and a relative viability (CAP-232 + Decitabine; first compound 1.265 µM) of 0.407. The relative viability (CAP-232 + Decitabine; first compound 4 µM) was 0.471 and the relative viability (CAP-232 + Decitabine; first compound 12.65 µM) was 0.337.
